Tests used:
PI3K-gamma = PI3K-gamma (Homo sapiens, UniProt P48736); assay: PI3K-gamma fluorescence polarization assay; assay type: biochemical; details: PI3Kγ Avg. IC50
In short: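 Reactions used 5 ng enzyme with 2.5 μM diC8-PI(4,5)P2 and 25 μM ATP in 5 mM HEPES pH 7, 2.5 mM MgCl2, run 1 h at 25° C. After an EDTA quench (10 mM), 100 nM GST-GRP1 PH domain and 5 nM BODIPY-TMR-IP4 were added and fluorescence polarization was read.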

PI3K-alpha = PI3K-alpha (Homo sapiens, UniProt P42336); assay: PI3K-alpha fluorescence polarization assay; assay type: biochemical; details: read-out: PI3Kα Avg. IC50
PI3K-alpha, sequence (P42336 whole entry, species assumed): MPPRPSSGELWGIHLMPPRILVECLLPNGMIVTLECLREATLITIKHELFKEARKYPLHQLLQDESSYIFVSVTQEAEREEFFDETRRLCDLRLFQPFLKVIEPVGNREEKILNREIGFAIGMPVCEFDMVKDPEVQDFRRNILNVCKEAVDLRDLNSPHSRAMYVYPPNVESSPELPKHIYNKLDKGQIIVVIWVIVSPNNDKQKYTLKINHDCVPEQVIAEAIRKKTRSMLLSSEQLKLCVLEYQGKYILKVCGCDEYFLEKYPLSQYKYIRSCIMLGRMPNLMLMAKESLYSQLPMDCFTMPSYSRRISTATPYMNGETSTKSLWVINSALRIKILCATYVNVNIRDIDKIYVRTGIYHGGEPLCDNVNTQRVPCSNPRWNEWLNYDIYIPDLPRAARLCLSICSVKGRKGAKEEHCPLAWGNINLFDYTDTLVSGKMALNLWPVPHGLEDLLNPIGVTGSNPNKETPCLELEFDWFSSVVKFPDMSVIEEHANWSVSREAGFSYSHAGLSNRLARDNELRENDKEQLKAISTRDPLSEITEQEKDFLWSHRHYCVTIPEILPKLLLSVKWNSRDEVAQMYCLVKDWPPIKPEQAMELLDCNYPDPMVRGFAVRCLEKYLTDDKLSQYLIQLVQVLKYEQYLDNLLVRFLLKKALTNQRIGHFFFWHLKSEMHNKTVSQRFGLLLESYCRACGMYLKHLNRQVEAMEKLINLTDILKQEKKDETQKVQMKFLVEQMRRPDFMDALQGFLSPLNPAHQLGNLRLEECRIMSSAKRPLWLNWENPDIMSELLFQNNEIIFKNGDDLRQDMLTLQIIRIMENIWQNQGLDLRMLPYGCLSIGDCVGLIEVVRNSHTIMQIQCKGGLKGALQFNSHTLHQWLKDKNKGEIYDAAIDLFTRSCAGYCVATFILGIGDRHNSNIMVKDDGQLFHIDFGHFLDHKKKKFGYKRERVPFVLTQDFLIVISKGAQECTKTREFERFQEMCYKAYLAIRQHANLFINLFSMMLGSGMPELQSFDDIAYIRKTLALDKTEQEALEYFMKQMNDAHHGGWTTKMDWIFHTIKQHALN
PI3K-alpha, sequence (P27986 whole entry partner, species assumed): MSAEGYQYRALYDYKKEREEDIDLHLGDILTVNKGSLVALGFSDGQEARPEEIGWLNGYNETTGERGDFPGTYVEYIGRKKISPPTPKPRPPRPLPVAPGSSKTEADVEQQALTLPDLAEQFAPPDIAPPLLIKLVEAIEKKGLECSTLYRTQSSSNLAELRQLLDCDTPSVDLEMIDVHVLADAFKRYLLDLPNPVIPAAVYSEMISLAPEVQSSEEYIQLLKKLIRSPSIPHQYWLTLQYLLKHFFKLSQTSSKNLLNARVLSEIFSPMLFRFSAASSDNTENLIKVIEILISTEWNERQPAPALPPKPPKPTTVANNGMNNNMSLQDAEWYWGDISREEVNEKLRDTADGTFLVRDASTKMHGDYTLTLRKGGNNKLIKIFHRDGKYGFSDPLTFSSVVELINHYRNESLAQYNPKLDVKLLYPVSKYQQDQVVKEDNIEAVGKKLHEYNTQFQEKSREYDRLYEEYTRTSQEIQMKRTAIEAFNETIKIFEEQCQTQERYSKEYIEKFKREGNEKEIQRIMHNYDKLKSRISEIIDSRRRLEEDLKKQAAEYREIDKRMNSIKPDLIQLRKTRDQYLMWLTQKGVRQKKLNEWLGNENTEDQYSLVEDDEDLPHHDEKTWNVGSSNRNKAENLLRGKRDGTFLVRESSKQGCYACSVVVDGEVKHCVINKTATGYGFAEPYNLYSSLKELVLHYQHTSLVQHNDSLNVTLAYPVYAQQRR

PI3K-gamma, sequence (P48736 whole entry, species assumed, the tested form may be a part): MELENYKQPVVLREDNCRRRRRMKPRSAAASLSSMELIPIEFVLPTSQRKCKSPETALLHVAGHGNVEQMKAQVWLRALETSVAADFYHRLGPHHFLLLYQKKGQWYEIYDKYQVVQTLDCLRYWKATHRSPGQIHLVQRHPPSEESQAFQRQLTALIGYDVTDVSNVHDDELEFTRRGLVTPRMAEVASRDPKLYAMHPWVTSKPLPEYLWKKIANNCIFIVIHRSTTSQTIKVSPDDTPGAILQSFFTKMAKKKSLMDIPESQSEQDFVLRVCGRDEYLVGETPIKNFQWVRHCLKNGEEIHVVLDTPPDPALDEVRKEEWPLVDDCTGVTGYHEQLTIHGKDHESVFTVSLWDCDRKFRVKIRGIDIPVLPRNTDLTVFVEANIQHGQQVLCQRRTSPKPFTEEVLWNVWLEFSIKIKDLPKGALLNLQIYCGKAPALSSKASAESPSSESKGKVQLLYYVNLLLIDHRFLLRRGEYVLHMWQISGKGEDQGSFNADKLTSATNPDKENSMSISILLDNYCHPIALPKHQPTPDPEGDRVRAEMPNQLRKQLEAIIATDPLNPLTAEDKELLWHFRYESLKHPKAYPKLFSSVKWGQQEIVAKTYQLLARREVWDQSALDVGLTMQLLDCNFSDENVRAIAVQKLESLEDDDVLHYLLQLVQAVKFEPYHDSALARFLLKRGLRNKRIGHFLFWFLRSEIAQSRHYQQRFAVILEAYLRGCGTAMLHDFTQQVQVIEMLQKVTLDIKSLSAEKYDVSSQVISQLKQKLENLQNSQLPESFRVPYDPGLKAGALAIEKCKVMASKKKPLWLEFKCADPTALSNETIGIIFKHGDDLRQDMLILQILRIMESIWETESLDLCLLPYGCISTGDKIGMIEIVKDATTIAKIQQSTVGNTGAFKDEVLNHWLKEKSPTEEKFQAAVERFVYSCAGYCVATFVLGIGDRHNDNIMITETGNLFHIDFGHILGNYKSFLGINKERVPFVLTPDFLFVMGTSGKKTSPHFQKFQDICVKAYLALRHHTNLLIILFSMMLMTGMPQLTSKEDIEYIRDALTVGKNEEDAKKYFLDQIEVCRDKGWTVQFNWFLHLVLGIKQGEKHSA

SMILES | IC50 (PI3K-gamma) | IC50 (PI3K-alpha)
COc1ccc2c(c1)c(/C=C1\Oc3ccc(NC(C)=O)cc3C1=O)cn2CCCN(C)C [Compound 525, N-[(2Z)-2-({1-[3-(dimethylamino)propyl]-5-methoxy-1H-indol-3-yl}methylene)-3-oxo-2,3-dihydro-1-benzofuran-5-yl]acetamide] | > 10 µM | 1.27 µM
COc1ccc2c(c1)c(/C=C1\Oc3ccc(NC(=O)NCCN)cc3C1=O)c(C1CCCC1)n2CCN1CCN(C)CC1 [Compound 577, 1-(2-aminoethyl)-3-[(2Z)-2-({2-cyclopentyl-5-methoxy-1-[2-(4-methylpiperazin-1-yl)ethyl]-1H-indol-3-yl}methylene)-3-oxo-2,3-dihydro-1-benzofuran-5-yl]urea] | 0.145 µM | 0.0011 µM
CNC(=O)Nc1ccc2c(c1)C(=O)/C(=C/c1cn(CCCN3CCCCC3)c3ccc(OC)cc13)O2 [Compound 578, 1-[(2Z)-2-{[5-methoxy-1-(3-piperidin-1-ylpropyl)-1H-indol-3-yl]methylene}-3-oxo-2,3-dihydro-1-benzofuran-5-yl]-3-methylurea] | 2.18 µM | 0.038 µM
Cn1cc(/C=C2\Oc3ccc(O)cc3C2=O)c2c(-c3ccccc3)cccc21 [Compound 530, (2Z)-5-hydroxy-2-[(1-methyl-4-phenyl-1H-indol-3-yl)methylene]-1-benzofuran-3(2H)-one] | > 10 µM | > 10 µM
Cc1[nH]c2ccc(Br)cc2c1/C=C1\Oc2c(ccc(O)c2O)C1=O [Example 66, (2Z)-2-[(5-bromo-2-methyl-1H-indol-3-yl)methylene]-6,7-dihydroxy-1-benzofuran-3(2H)-one] | 2.91 µM | 0.232 µM
CNC(=O)Nc1ccc2c(c1)C(=O)/C(=C/c1c(C(=O)N3CCN(C)CC3)[nH]c3ccc(OC)cc13)O2 [Compound 601, 1-[(2Z)-2-({5-methoxy-2-[(4-methylpiperazin-1-yl)carbonyl]-1H-indol-3-yl}methylidene)-3-oxo-2,3-dihydro-1-benzofuran-5-yl]-3-methylurea] | 0.077 µM | 0.008 µM
COc1ccc2[nH]cc(C=C3Oc4cc(OS(=O)(=O)C(F)(F)F)ccc4C3=O)c2c1 [Compound 494, 2-[(5-methoxy-1H-indol-3-yl)methylene]-3-oxo-2,3-dihydro-1-benzofuran-6-yl trifluoromethanesulfonate] | 9.35 µM | > 10 µM
COc1cccc2c1O/C(=C\c1c[nH]c3ccc(Br)cc13)C2=O [Compound 481, (2Z)-2-[(5-bromo-1H-indol-3-yl)methylene]-7-methoxy-1-benzofuran-3(2H)-one] | > 10 µM | > 10 µM
CNC(=O)Nc1ccc2c(c1)C(=O)/C(=C/c1c(-c3c(C)nn(C)c3C)[nH]c3ccc(OC)cc13)O2 [Compound 616, 1-[(2Z)-2-{[5-methoxy-2-(1,3,5-trimethyl-1H-pyrazol-4-yl)-1H-indol-3-yl]methylidene}-3-oxo-2,3-dihydro-1-benzofuran-5-yl]-3-methylurea] | 0.0048 µM | 0.0004 µM
Cc1cccc2c1c(/C=C1\Oc3cc(O)cc(O)c3C1=O)c(-c1ccccc1)n2C [Compound 476, (2Z)-2-[(1,4-dimethyl-2-phenyl-1H-indol-3-yl)methylene]-4,6-dihydroxy-1-benzofuran-3(2H)-one] | 1.64 µM | 0.412 µM
CNC(=O)Nc1ccc2c(c1)C(=O)/C(=C/c1c(C(=O)N(C)C)[nH]c3ccc(OC)cc13)O2 [Compound 600, 5-methoxy-N,N-dimethyl-3-[(Z)-{5-[(methylcarbamoyl)amino]-3-oxo-1-benzofuran-2(3H)-ylidene}methyl]-1H-indole-2-carboxamide] | 0.129 µM | 0.024 µM
CCCc1noc(-c2[nH]c3ccc(OC)cc3c2/C=C2\Oc3ccc(NC(=O)NC)cc3C2=O)n1 [Compound 593, 1-[(2Z)-2-{[5-methoxy-2-(3-propyl-1,2,4-oxadiazol-5-yl)-1H-indol-3-yl]methylene}-3-oxo-2,3-dihydro-1-benzofuran-5-yl]-3-methylurea] | 0.776 µM | 0.0125 µM
CNC(=O)Nc1ccc2c(c1)C(=O)/C(=C/c1c(-c3nc(C(C)C)no3)[nH]c3ccc(OC)cc13)O2 [Compound 591, 1-[(2Z)-2-{[2-(3-isopropyl-1,2,4-oxadiazol-5-yl)-5-methoxy-1H-indol-3-yl]methylene}-3-oxo-2,3-dihydro-1-benzofuran-5-yl]-3-methylurea] | 9.5 µM | 0.008 µM
CNCCCNC(=O)Nc1ccc2c(c1)C(=O)/C(=C/c1cn(CCN3CCN(C)CC3)c3ccc(OC)cc13)O2 [Compound 564, 1-[(2Z)-2-({5-methoxy-1-[2-(4-methylpiperazin-1-yl)ethyl]-1H-indol-3-yl}methylene)-3-oxo-2,3-dihydro-1-benzofuran-5-yl]-3-[3-(methylamino)propyl]urea] | 7.62 µM | 0.0955 µM
COc1ccc2c(c1)c(/C=C1\Oc3ccc(O)cc3C1=O)c(C)n2CCN1CCN(C)CC1 [Compound 519] | 6.05 µM | 0.273 µM
C=CCNC(=O)Nc1ccc2c(c1)C(=O)/C(=C/c1cn(CCN3CCN(C)CC3)c3ccc(OC)cc13)O2 [Compound 550, 1-allyl-3-[(2Z)-2-({5-methoxy-1-[2-(4-methylpiperazin-1-yl)ethyl]-1H-indol-3-yl}methylene)-3-oxo-2,3-dihydro-1-benzofuran-5-yl]urea] | 1.13 µM | 0.0645 µM
CNC(=O)Nc1ccc2c(c1)C(=O)/C(=C/c1cn(C)c3c(CCCN4CCN(C)CC4)cc(OC)cc13)O2 [Compound 572, 1-[(2Z)-2-({5-methoxy-1-methyl-7-[3-(4-methylpiperazin-1-yl)propyl]-1H-indol-3-yl}methylene)-3-oxo-2,3-dihydro-1-benzofuran-5-yl]-3-methylurea] | 2.32 µM | 1.66 µM
C#CCNC(=O)Nc1ccc2c(c1)C(=O)/C(=C/c1cn(CCN3CCN(C)CC3)c3ccc(OC)cc13)O2 [Compound 548, 1-[(2Z)-2-({5-methoxy-1-[2-(4-methylpiperazin-1-yl)ethyl]-1H-indol-3-yl}methylene)-3-oxo-2,3-dihydro-1-benzofuran-5-yl]-3-prop-2-yn-1-ylurea] | 2.79 µM | 0.0645 µM
CNC(=O)Nc1ccc2c(c1)C(=O)/C(=C/c1c[nH]c3c(/C=C/CN(C)C)cc(OC)cc13)O2 [Compound 573, 1-[(2Z)-2-({7-[(1E)-3-(dimethylamino)prop-1-en-1-yl]-5-methoxy-1H-indol-3-yl}methylene)-3-oxo-2,3-dihydro-1-benzofuran-5-yl]-3-methylurea] | 1.59 µM | 0.052 µM
COc1ccc2c(c1)c(C=C1Oc3cccc(O)c3C1=O)c(C)n2CCCCCl [Example 123, 2-{[1-(4-chlorobutyl)-5-methoxy-2-methyl-1H-indol-3-yl]methylene}-4-hydroxy-1-benzofuran-3(2H)-one] | > 10 µM | 1.22 µM
CNC(=O)Nc1ccc2c(c1)C(=O)/C(=C/c1c(C3CCCCC3)n(CCN3CCN(C)CC3)c3ccc(OC)cc13)O2 [Compound 533, 1-[(2Z)-2-({2-cyclohexyl-5-methoxy-1-[2-(4-methylpiperazin-1-yl)ethyl]-1H-indol-3-yl}methylene)-3-oxo-2,3-dihydro-1-benzofuran-5-yl]-3-methylurea] | 0.389 µM | 0.0022 µM
Cn1cc(/C=C2\Oc3ccc(NC(=O)Nc4cccnc4)cc3C2=O)c2c(-c3ccccc3)cccc21 [Compound 535, 1-{(2Z)-2-[(1-methyl-4-phenyl-1H-indol-3-yl)methylene]-3-oxo-2,3-dihydro-1-benzofuran-5-yl}-3-pyridin-3-ylurea] | > 10 µM | > 10 µM
COc1ccc2[nH]cc(/C=C3\Oc4ccc(NC(=O)NC(C)C)cc4C3=O)c2c1 [Compound 486, 1-isopropyl-3-{(2Z)-2-[(5-methoxy-1H-indol-3-yl)methylene]-3-oxo-2,3-dihydro-1-benzofuran-5-yl}urea] | 1.61 µM | 1.46 µM
Cn1cc(C=C2Oc3cc(O)cc(O)c3C2=O)c2c(-c3ccccc3)cccc21 [Example 268, 4,6-dihydroxy-2-[(1-methyl-4-phenyl-1H-indol-3-yl)methylene]-1-benzofuran-3(2H)-one] | 2.69 µM | > 5.74 µM
CCc1cc(OC)cc2c(C=C3Oc4cc(O)cc(O)c4C3=O)cn(CCCC#N)c12 [Compound 471, 4-{3-[(4,6-dihydroxy-3-oxo-1-benzofuran-2(3H)-ylidene)methyl]-7-ethyl-5-methoxy-1H-indol-1-yl}butanenitrile] | 0.139 µM | 0.0625 µM
COc1cc(-c2cccnc2)c2c(c1)c(/C=C1\Oc3cc(O)ccc3C1=O)cn2CCCC#N [Compound 502, 4-{3-[(Z)-(6-hydroxy-3-oxo-1-benzofuran-2(3H)-ylidene)methyl]-5-methoxy-7-pyridin-3-yl-1H-indol-1-yl}butanenitrile] | 4.16 µM | 0.592 µM
O=C1/C(=C/c2cn(CCO)c3cccc(-c4ccccc4)c23)Oc2cc(O)cc(O)c21 [Compound 478, (2Z)-4,6-dihydroxy-2-{[1-(2-hydroxyethyl)-4-phenyl-1H-indol-3-yl]methylene}-1-benzofuran-3(2H)-one] | 1.74 µM | 1.2 µM
CNC(=O)Nc1ccc2c(c1)C(=O)/C(=C/c1c[nH]c3c(/C=C/CN4CCOCC4)cc(OC)cc13)O2 [Compound 567, 1-[(2Z)-2-({5-methoxy-7-[(1E)-3-morpholin-4-ylprop-1-en-1-yl]-1H-indol-3-yl}methylene)-3-oxo-2,3-dihydro-1-benzofuran-5-yl]-3-methylurea] | 1.55 µM | 0.164 µM
Cn1c(-c2ccccc2)c(/C=C2\Oc3cc(O)cc(O)c3C2=O)c2c([N+](=O)[O-])cccc21 [Compound 499, (2Z)-4,6-dihydroxy-2-[(1-methyl-4-nitro-2-phenyl-1H-indol-3-yl)methylene]-1-benzofuran-3(2H)-one] | 3.56 µM | 0.342 µM
